# In ChEMBL document CHEMBL6071139, “Recent discovery of natural substances with cathepsin L-inhibitory activity for cancer metastasis suppression” (Eur J Med Chem, 2024):
# How the values were obtained:
# Procathepsin L [1] = target: T1, Procathepsin L (Homo sapiens, UniProt P07711); assay: Inhibition of CTSL (unknown origin) using Z-Phe-Arg-AMC as substrate by fluorometric assay
# Procathepsin L [2] = target: T1, Procathepsin L; assay: Inhibition of CTSL (unknown origin)
# [3] = Lipophilicity, logP of compound; settings: octanol/water
# Procathepsin L [4] = target: T1, Procathepsin L; assay: Inhibition of CTSL (unknown origin) using Z-Phe-Arg-AMC as substrate preincubated for 30 mins followed by substrate addition measured after 6 mins by fluorescence based assay
# T1 sequence (P07711 whole entry): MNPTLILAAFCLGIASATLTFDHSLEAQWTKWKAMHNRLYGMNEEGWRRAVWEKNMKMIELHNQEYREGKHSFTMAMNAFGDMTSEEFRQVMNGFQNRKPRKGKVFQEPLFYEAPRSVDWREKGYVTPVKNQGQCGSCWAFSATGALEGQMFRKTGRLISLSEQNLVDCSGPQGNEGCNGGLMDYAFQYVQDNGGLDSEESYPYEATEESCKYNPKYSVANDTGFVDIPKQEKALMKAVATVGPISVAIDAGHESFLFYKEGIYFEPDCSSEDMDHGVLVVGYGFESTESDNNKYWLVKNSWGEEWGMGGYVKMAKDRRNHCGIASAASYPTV
SMILES,IC50 (Procathepsin L [2]),Ki (Procathepsin L [2]),other results
O=C(O)/C=C/c1ccc(O)cc1O,,,IC50 (Procathepsin L [1]): 930 µM
CCOC(=O)/C=C/C(=O)[C@H](CC(C)C)NC(=O)[C@H](Cc1ccccc1)NC(=O)OCc1ccccc1,,0.012 µM,
C[C@@H](/C=C/[N+](=O)[O-])NC(=O)[C@H](Cc1ccc([N+](=O)[O-])cc1)NC(=O)OCc1ccccc1,,0.0039 µM,logP [3]: 1.85
Cc1ccc(S(=O)(=O)N[C@@H](Cc2ccccc2)C(=O)OC[C@H](Cc2ccccc2)NC(=O)c2ccccc2)cc1,,,IC50 (Procathepsin L [4]): 30.2 µM
Cc1ccc(S(=O)(=O)/C=C/C(=O)[C@H](CC(C)C)NC(=O)[C@H](CC(C)C)NC(=O)OCc2ccccc2)cc1,,0.0085 µM,
C[C@@H](/C=C/[N+](=O)[O-])NC(=O)[C@H](Cc1c[nH]c2ccccc12)NC(=O)OCc1ccccc1,,0.0011 µM,logP [3]: 1.61
O=C(N[C@H](COC(=O)[C@H](Cc1ccccc1)NC(=O)c1ccccc1)Cc1ccccc1)c1ccccc1 [ASPERPHENAMATE],91.2 µM,,

# Now from value to compound, other results behind:
IC50 (Procathepsin L [2]),Ki (Procathepsin L [2]),SMILES,other results
6 µM,,O=C(N[C@@H](Cc1ccccc1)C(=O)OC[C@H](Cc1ccccc1)NS(=O)(=O)c1ccc(Br)cc1)c1ccccc1,
5.8 µM,,O=C(N[C@H](COC(=O)[C@H](Cc1ccccc1)NS(=O)(=O)c1cccc(Br)c1)Cc1ccccc1)c1ccccc1,
